Patent US20190380964A1, “METHODS AND COMPOSITIONS FOR MAKING AND USING NANOTHERAPEUTIC DRUG DELIVERY VEHICLES” (GEORGE MASON UNIVERSITY, priority 2018, published 2019)

Assays:
MDA-MB-231 cells [1] = assay: WST-1 proliferation / viability of MDA-MB-231 cells exposed to targeted DXR liposomes; assay type: cell-based; settings: 8 or 24 hours exposure, evaluated over 3 days
Experimental: In an alternate embodiment, MDA-MB-231 cells were grown in DMEM containing 10% FBS and 1× Penicillin-Streptomycin solution. The cells were cultured at 70% confluence and plated in a 96 well plate at a density of 5×10^4 cells/well. The cells were incubated undisturbed for two days prior to any experimentation. Liposomal suspensions were UV sterilized prior to introduction to cell cultures. On the second day, the liposomal carriers containing DXR were introduced to the cultures at the EC-50 of DXR (0.01 μM21). Proliferating cells were quantified and normalized by the control using WST-1 proliferation assay.
Liposomes were incubated with DXR (17.2 mM) and DSPE-PEG-MAL (0.1 mol %) for 1 hour. The suspension was then purified using spin columns and incubated overnight with CD44 antibodies as described in the methods. Targeted liposomes were introduced to cultures of MDA-MB-231 cells and allowed to interact for 8 hours or 24 hours prior to being washed. […] Viability was analyzed over 72 hours using WST-1 as an indicator of proliferation and normalized to a media only control (e.g., as is illustrated in FIG. 8D).

MDA-MB-231 cells [2] = settings: concentration at which DXR liposomal carriers were introduced; read-out: EC-50 of DXR; cited from earlier work

For `COc1cccc2c1C(=O)c1c(O)c3c(c(O)c1C2=O)C[C@@](O)(C(=O)CO)C[C@@H]3O[C@H]1C[C@H](N)[C@H](O)[C@H](C)O1` [DXR, doxorubicin], the “cancer cell viability (result in words, FIG. 8D)” value (MDA-MB-231 cells [1]) is listed as “demonstrated efficacy in reducing cancer cell viability” and the EC50 (MDA-MB-231 cells [2]) is listed as 10 nM.
